Laboratory results published in patent US9765114B2, “Method for cancer immunotherapy” (International Institute of Cancer Immunology, Inc., priority 2005, dated 2017).
No end group written: not given here.

What was measured:
[1] = tested on: HLA-A24; conditions: HLA-A24-restricted manner; cited from earlier work
[2] = tested on: HLA-A24 antigen; conditions: compared with the wild type peptide; cited from earlier work
[3] = tested on: HLA-A2402 expressing VA13/A2402 cells pulsed with or without peptide; experiment: Test using human PBMC: IFN-γ ELISA of peptide-stimulated CD8 positive T cells; assay type: cell-based; conditions: Day 21 T cells, FIG. 9
Description: Peripheral blood (50 ml) was taken using heparinized vacuum blood collection tube from HLA-A24 positive healthy subjects. The blood diluted two fold with PBS (−) was overlayered on Ficoll-Paque (Amersham Biosciences), the amount of which was half of the amount of the blood, followed by centrifugation for 20 minutes at 2000 rpm. A cell layer containing the peripheral blood mononuclear cells (PBMC) was collected and 3-4 times the amount of PBS (−) was added thereto, followed by centrifugation for 10 minutes at 1800 rpm. The cell pellet was washed twice with PBS (−) and PMBC was collected.
The PMBC was suspended in medium for culturing lymphocyte (RPMI1640: AIM V=1:1, NEAA, 10% FCS) and cultured in a culture flask for two hours and nonadherent cells were collected. Using CD8^+ T cell isolation kit II (Miltenyi Biotec), CD8 positive T cells were collected among the nonadherent cells. The adherent cells were cultured in the medium for culturing lymphocyte containing GM-CSF (1000 U/ml) and IL-4 (1000 U/ml) for 7 days. The floating cells were collected as an antigen-presenting cell fraction containing dendritic cells (DC). The collected cells were frozen for preservation until they are used for experiments.
The DC fraction prepared as above was pulsed with the peptide of Example 1 (50 μg/ml) by incubating the cells with the peptide in AIM-V medium containing mitomycin (50 μg/ml) for one hour. After washing with the medium three times, the peptide of Example 1 was further added (50 μg/ml) for one hour pulse to prepare antigen-presenting cells. On Day 0, antigen-presenting cells pulsed with the peptide were added to CD8 positive T cells to conduct the first stimulation, and the cell culture was started in medium for culturing lymphocyte containing IL-7 (10 ng/ml) using 24-well plate. On Day 7, T cells were collected and after washing them, peptide stimulation using antigen-presenting cells pulsed with the peptide was conducted in a similar way to the first stimulation. On the next day (Day 8), IL-2 was added so that the concentration was 50 U/ml. On Day 14, T cells were collected and the third stimulation was conducted in a similar way to the first or second stimulation. On the next day (Day 15), IL-2 was added so that the concentration was 50 U/ml. On Day 21, T cells were collected and frozen for preservation.
1×10^5 cells of T cells of Day 21 were added to 2×10^4 cells of HLA-A2402 expressing VA13/A2402 cells pulsed with or without each of the peptides (wild type peptide (WT1235-243), modified peptide (WT1235-243(2M→Y)) or the peptide of Example 1) and 18 hours later, the supernatant was collected to determine the amount of IFN-γ using ELISA.
The results of the peptide specific reactivity of T cells stimulated with the synthetic peptide of Example 1 were shown in FIG. 9. […]

[4] = tested on: splenocytes; experiment: Immunization of a mouse (2), mouse IFN gamma ELISPOT of splenocytes; assay type: in vivo, HLA-A2402/K^b transgenic mouse; conditions: splenocytes 7 days after immunization; peptides added at 10^-6 M, 18 hours; FIG. 8
Description: The peptide of Example 1 was adjusted to 40 mg/ml in DMSO. Then, the solution (32.5 μl) was mixed with water for injection (540 μl). Further, the resulting solution (550 μl) was mixed with Freund's incomplete adjuvant (700 μl) (Montanide ISA51 (registered trademark)) (SEPPIC, Inc, Paris, France) using a glass syringe to prepare water-in-oil emulsion.
The resulting preparation (200 μl) was injected into an HLA-A2402/K^b transgenic mouse intradermally in the base of the tail for immunization. 7 days after initiation of the experiment, spleen was removed and splenocytes were prepared in a conventional manner (WO 02/47474). Then, tests were conducted using mouse IFN gamma ELISPOT set (Enzyme—Linked Immunospot) (Fujisawa, catalog No. BD-551083). The test was conducted according to the instructions attached to the set.
According to the attached instructions, the plate was washed and the number of spots was detected using KS Elispot Research System (Carl Zeiss). Elispot method is known as an alternative to a test for cytotoxic activity (J. Immunological Methods, 1995, 181, 45-54).

Substance: CMTWNQMNL [WT1235-243, peptide spanning positions 235 to 243 of the cancer antigen protein WT1]
- activity to induce CTLs [1]: having an activity to induce CTLs in HLA-A24-restricted manner

Substance: CYTWNQMNL [WT1235-243 (2M→Y)]
- binding affinity for the HLA-A24 antigen [2]: higher binding affinity for the HLA-A24 antigen than the wild type peptide

Substance: H-Cys(H-Cys-OH)-Tyr-Thr-Trp-Asn-Gln-Met-Asn-Leu-OH (H-C(Cys)YTWNQMNL-OH; also: Cys1 disulfide-linked to a free Cys-OH (cystine)) [Example 1, derivative of WT1235-243 (2M→Y) modified with cystine]
- reactivity (IFN-γ) of T cells stimulated with the peptide to cells pulsed without the peptide ([3]; VA13/A2402 cells not pulsed, 18 hours): did not react
- reactivity (IFN-γ) of T cells stimulated with the peptide to cells pulsed with the modified peptide (WT1235-243 (2M→Y)) ([3]; VA13/A2402 cells pulsed with WT1235-243 (2M→Y), 18 hours): reacted
- reactivity (IFN-γ) of T cells stimulated with the peptide to cells pulsed with the wild type peptide (WT1235-243) ([3]; VA13/A2402 cells pulsed with WT1235-243, 18 hours): reacted
- reactivity (IFN-γ) of T cells stimulated with the peptide to cells pulsed with the peptide of Example 1 ([3]; VA13/A2402 cells pulsed with the peptide of Example 1, 18 hours): sufficiently reacted
- HLA-A24 specific cell-mediated immunity, IFN gamma ELISPOT spots [4]: could induce HLA-A24 specific cell-mediated immunity which cross reacted with the wild type peptide
